Values of other authors as cited in patent publication US20170274026A1, “METHOD OF MAKING TRITERPENOIDS FROM PETRI DISH CULTUREDANTRODIA CINNAMOMEA” (Ultra-Microrigin Biomedical Technology Co., Ltd., priority 2016, published 2017).

System: cancer cells
Conditions: Toxicology in Vitro and International Journal of Gerontology

Compound: C=C(CC[C@@H](C(=O)O)[C@H]1C[C@H](O)[C@@]2(C)C3=CC[C@H]4C(C)(C)[C@@H](O)CC[C@]4(C)C3=CC[C@]12C)C(C)C [MMH01, dehydrosulphurenic acid]
- anti-tumor effect and repressing the growth of cancer cells: effective in anti-tumor and repressing the growth of cancer cells
